Experiment: Solubility measurement in water (Test Example)
Type: physicochemical
Conditions: 25° C., 1 atm, 24 hr
Protocol: In order to evaluate the validity of the method of determining the water insolubility according to the present invention in the Example and Comparative Example, the following testing was performed.

SMILES	amount dissolved in 100 g of water [g]	water solubility (in words) (100 g of water)
CCC(C)O (centres unmarked) [2-butanol]	30	–
c1ccc2ccccc2c1 [Bicyclo[4.4.0]deca-1,3,5,7,9-pentene]	–	approximated zero
